The text below walks through data of patent publication US9359348B2, “Cyclopropyl imidazopyridine PDE10 inhibitors” (Merck Sharp & Dohme Corp., priority 2012, dated 2016).

As a reminder, the Ki is the dissociation constant of the complex between target and ligand, obtained from inhibition or displacement.

For the assay, the target named is human PDE10A2 (Homo sapiens (Human), UniProt Q9Y233). Description: PDE10 fluorescence polarization (IMAP FP) inhibition assay. It counts as biochemical. As to conditions: FAM-labeled cAMP 50 nM, room temperature. How it is done: The activity of the compounds in accordance with the present invention as PDE10 inhibitors may be readily determined without undue experimentation using a fluorescence polarization (FP) methodology that is well known in the art (Huang, W., et al., J. Biomol Screen, 2002, 7: 215).
human PDE10A2, sequence (Q9Y233 267-1055): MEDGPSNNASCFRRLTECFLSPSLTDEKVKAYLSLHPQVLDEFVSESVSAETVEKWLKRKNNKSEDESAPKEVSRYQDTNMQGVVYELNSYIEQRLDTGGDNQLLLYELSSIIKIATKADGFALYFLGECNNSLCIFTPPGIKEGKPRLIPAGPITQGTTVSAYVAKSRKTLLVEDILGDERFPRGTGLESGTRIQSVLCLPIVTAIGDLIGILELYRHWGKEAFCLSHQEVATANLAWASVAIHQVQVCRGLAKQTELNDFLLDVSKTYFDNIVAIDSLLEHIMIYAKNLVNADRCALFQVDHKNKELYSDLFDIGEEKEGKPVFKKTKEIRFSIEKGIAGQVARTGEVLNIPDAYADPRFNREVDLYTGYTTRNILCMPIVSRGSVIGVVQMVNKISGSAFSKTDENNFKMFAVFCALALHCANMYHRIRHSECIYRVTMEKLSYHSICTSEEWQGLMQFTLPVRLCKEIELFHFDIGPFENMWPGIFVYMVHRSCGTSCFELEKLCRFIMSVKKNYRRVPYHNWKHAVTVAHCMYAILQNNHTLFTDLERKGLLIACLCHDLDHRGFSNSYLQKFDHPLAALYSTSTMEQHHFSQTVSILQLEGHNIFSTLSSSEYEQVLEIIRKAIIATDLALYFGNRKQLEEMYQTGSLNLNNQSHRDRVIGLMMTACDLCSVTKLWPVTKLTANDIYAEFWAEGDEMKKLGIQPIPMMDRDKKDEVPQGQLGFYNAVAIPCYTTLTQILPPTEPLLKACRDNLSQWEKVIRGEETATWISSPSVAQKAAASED
In a typical experiment the PDE10 inhibitory activity of the compounds of the present invention was determined in accordance with the following experimental method. PDE10A2 was amplified from human fetal brain cDNA (Clontech, Mountain View, Calif.) using a forward primer corresponding to nucleotides 56-77 of human PDE10A2 (Accession No. AF127480, Genbank Identifier 4894716), containing a Kozak consensus sequence, and a reverse primer corresponding to nucleotides 2406-2413 of human PDE10A2 (Accession No. AF127480, Genbank Identifier 4894716). Amplification with Easy-A polymerase (Stratagene, La Jolla, Calif.) was 95° C. for 2 minutes followed by thirty three cycles of 95° C. for 40 seconds, 55° C. for 30 seconds, and 72° C. for 2 minutes 48 seconds. Final extension was 72° C. for 7 minutes. The PCR product was TA cloned into pcDNA3.2-TOPO (Invitrogen, Carlsbad, Calif.) according to standard protocol. AD293 cells with 70-80% confluency were transiently transfected with human PDE10A2/pcDNA3.2-TOPO using Lipofectamine 2000 according to manufacturer specifications (Invitrogen, Carlsbad, Calif.). Cells were harvested 48 hours post-transfection and lysed by sonication (setting 3, 10×5 sec pulses) in a buffer containing 20 mM HEPES, 1 mM EDTA and protease inhibitor cocktail (Roche). Lysate was collected by centrifugation at 75,000 xg for 20 minutes. Supernatant containing the cytoplasmic fraction was used for evaluation of PDE10A2 activity. The fluorescence polarization assay for cyclic nucleotide phosphodiesterases was performed using an IMAP® FP kit supplied by Molecular Devices, Sunnyvale, Calif. (product # R8139). IMAP® technology has been applied previously to phosphodiesterase assays (Huang, W., et al., J. Biomol Screen, 2002, 7: 215). Assays were performed at room temperature in 384-well microtiter plates with an incubation volume of 20.2 μL. Solutions of test compounds were prepared in DMSO and serially diluted with DMSO to yield 8 μL of each of 10 solutions differing by 3-fold in concentration, at 32 serial dilutions per plate. 100% inhibition is determined using a known PDE10 inhibitor, which can be any compound that is present at 5,000 times its Ki value in the assay described as follows, such as papaverine (see Siuciak, et al. Neuropharmacology (2006) 51:386-396; Becker, et al. Behav Brain Res (2008) 186(2):155-60; Threlfell, et al., J Pharmacol Exp Ther (2009) 328(3):785-795), 2-{4-[pyridin-4-yl-1-(2,2,2-trifluoroethyl)-1H-pyrazol-3-yl]phenoxymethyl}quinoline succinic acid or 2-[4-(1-methyl-4-pyridin-4-yl-1H-pyrazol-3-yl)-phenoxymethyl]quinoline succinic acid (see Schmidt, et al. J Pharmacol Exp Ther (2008) 325:681-690; Threlfell, et al., J Pharmacol Exp Ther (2009) 328(3): 785-795). 0% of inhibition is determined by using DMSO (1% final concentrations).
A Labcyte Echo 555 (Labcyte, Sunnyvale, Calif.) is used to dispense 200 nL from each well of the titration plate to the 384 well assay plate. A solution of enzyme (1/1600 dilution from aliquots; sufficient to produce 20% substrate conversion) and a separate solution of FAM-labeled cAMP PDE from Molecular Devices (product # R7506), at a final concentration of 50 nM are made in the assay buffer (10 mM Tris HCl, pH 7.2, 10 mM MgCl2, 0.05% NaN3 0.01% Tween-20, and 1 mM DTT). The enzyme and the substrate are then added to the assay plates in two consecutive additions of 10 μL, and then shaken to mix. The reaction is allowed to proceed at room temperature for 30 minutes. A binding solution is then made from the kit components, comprised of 80% Solution A, 20% Solution B and binding reagent at a volume of 1/600 the total binding solution. […]
On to `Cc1nc([C@@H]2C[C@H]2c2cn3ccc(F)cc3n2)cc(-n2nc(C)nc2C)n1` (relative stereo) [Example 7, 2-((trans)-2-(6-(3,5-dimethyl-1H-1,2,4-triazol-1-yl)-2-methylpyrimidin-4-yl)cyclopropyl)-7-fluoroimidazo[1,2-a]pyridine], for which the affinity, expressed as Ki, was 13 nM. In turn, `Cc1nc([C@H]2C[C@@H]2c2cn3ccccc3n2)cc(-n2nc(C)nc2C)n1` (stereo in doubt) [Example 1, 2-((1S,2S)-2-(6-(3,5-dimethyl-1H-1,2,4-triazol-1-yl)-2-methylpyrimidin-4-yl)cyclopropyl)imidazo[1,2-a]pyridine] returned an inhibition constant Ki of 5.8 nM.

Consider `Cc1nc([C@@H]2C[C@H]2c2cn3c(C)cccc3n2)cc(-n2nc(C)nc2C)n1` (relative stereo) [Example 2, 2-((trans)-2-(6-(3,5-dimethyl-1H-1,2,4-triazol-1-yl)-2-methylpyrimidin-4-yl)cyclopropyl)-5-methylimidazo[1,2-a]pyridine], for which the Ki stood at 8.3 nM. In the case of `Cc1nc([C@@H]2C[C@H]2c2nc3ccccn3c2C#N)cc(-n2nc(C)nc2C)n1` (relative stereo) [Example 11, 2-((trans)-2-(6-(3,5-dimethyl-1H-1,2,4-triazol-1-yl)-2-methylpyrimidin-4-yl)cyclopropyl)imidazo[1,2-a]pyridine-3-carbonitrile], the Ki was > 75 nM. With `Cc1nc([C@@H]2C[C@H]2c2nc3ccccn3c2I)cc(-n2nc(C)nc2C)n1` (relative stereo) [Example 8, 2-((trans)-2-(6-(3,5-dimethyl-1H-1,2,4-triazol-1-yl)-2-methylpyrimidin-4-yl)cyclopropyl)-3-iodoimidazo[1,2-a]pyridine], the affinity, expressed as Ki, was 9 nM.

Consider `C=Cc1c([C@@H]2C[C@H]2c2cc(-n3nc(C)nc3C)nc(C)n2)nc2ccccn12` (relative stereo) [Example 10, 2-((trans)-2-(6-(3,5-dimethyl-1H-1,2,4-triazol-1-yl)-2-methylpyrimidin-4-yl)cyclopropyl)-3-vinylimidazo[1,2-a]pyridine], for which the Ki is 3.8 nM. `Cc1ccc2nc([C@@H]3C[C@H]3c3cc(-n4nc(C)nc4C)nc(C)n3)cn2c1` (relative stereo) [Example 3, 2-((trans)-2-(6-(3,5-dimethyl-1H-1,2,4-triazol-1-yl)-2-methylpyrimidin-4-yl)cyclopropyl)-6-methylimidazo[1,2-a]pyridine] displayed a Ki of 24 nM.

For `Cc1nc([C@@H]2C[C@H]2c2cn3cccc(F)c3n2)cc(-n2nc(C)nc2C)n1` (relative stereo) [Example 6, 2-((trans)-2-(6-(3,5-dimethyl-1H-1,2,4-triazol-1-yl)-2-methylpyrimidin-4-yl)cyclopropyl)-8-fluoroimidazo[1,2-a]pyridine], the Ki was > 75 nM. Compound `Cc1ccn2cc([C@@H]3C[C@H]3c3cc(-n4nc(C)nc4C)nc(C)n3)nc2c1` (relative stereo) [Example 4, 2-((trans)-2-(6-(3,5-dimethyl-1H-1,2,4-triazol-1-yl)-2-methylpyrimidin-4-yl)cyclopropyl)-7-methylimidazo[1,2-a]pyridine] returned a Ki of 44 nM.

Compound `Cc1nc([C@@H]2C[C@H]2c2nc3ccccn3c2C)cc(-n2nc(C)nc2C)n1` (relative stereo) [Example 9, 2-((trans)-2-(6-(3,5-dimethyl-1H-1,2,4-triazol-1-yl)-2-methylpyrimidin-4-yl)cyclopropyl)-3-methylimidazo[1,2-a]pyridine] yielded a Ki of 2.1 nM. Then `Cc1nc([C@@H]2C[C@H]2c2cn3cccc(C)c3n2)cc(-n2nc(C)nc2C)n1` (relative stereo) [Example 5, 2-((trans)-2-(6-(3,5-dimethyl-1H-1,2,4-triazol-1-yl)-2-methylpyrimidin-4-yl)cyclopropyl)-8-methylimidazo[1,2-a]pyridine], with > 75 nM.
